Measured values published in patent publication US12612387B2, “RAS inhibitors and methods of using the same” (Jazz Pharmaceuticals Ireland Limited, priority 2020, dated 2026).

Columns and labels:
K-RAS G12C = target: T1, K-RAS G12C (Homo sapiens, UniProt P01116, G12C); experiment: Compound depletion assay, K-RAS G12C; type: binding; settings: G12C protein 20 μM, compound 8 μM, 25° C.
T1 construct: His tag; purchased Stratech
Outline: (§1)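 His-tagged K-RAS (20 μM) in 20 mM HEPES pH 7.5, 150 mM NaCl, 1 mM MgCl2 incubated with 8 μM compound (final) at 25 °C with agitation. At 0, 30, 180, 360, 1440 min, samples were acid/acetonitrile-quenched and remaining free compound quantified by LC-MS/MS against propranolol, as percent of time zero.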

K-RAS G12D = target: T2, K-RAS G12D (Homo sapiens, UniProt P01116, G12D); experiment: Compound depletion assay, K-RAS G12D; type: binding; settings: G12D protein 20 μM, compound 8 μM, 25° C.
T2 construct: His tag; purchased Stratech
T2 sequence (P01116 1-188 isoform P01116-2 G12D): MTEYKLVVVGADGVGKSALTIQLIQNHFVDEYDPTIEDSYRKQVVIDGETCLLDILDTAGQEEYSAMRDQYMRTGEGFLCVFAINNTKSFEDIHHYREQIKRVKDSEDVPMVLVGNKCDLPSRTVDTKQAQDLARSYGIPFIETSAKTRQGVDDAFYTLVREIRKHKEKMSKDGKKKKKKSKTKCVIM
Outline: as §1

T1 sequence (P01116 1-188 isoform P01116-2 G12C): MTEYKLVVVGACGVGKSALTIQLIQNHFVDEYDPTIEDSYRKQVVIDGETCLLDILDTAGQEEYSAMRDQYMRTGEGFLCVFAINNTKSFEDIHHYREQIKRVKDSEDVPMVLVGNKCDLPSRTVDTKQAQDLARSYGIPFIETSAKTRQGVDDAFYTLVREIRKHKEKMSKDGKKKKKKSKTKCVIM

| 30 min Category (compound remaining at timepoint) (K-RAS G12C) | 3 hr Category (compound remaining at timepoint) (K-RAS G12C) | 6 hr Category (compound remaining at timepoint) (K-RAS G12C) | 30 min Category (compound remaining at timepoint) (K-RAS G12D) | 3 hr Category (compound remaining at timepoint) (K-RAS G12D) | 6 hr Category (compound remaining at timepoint) (K-RAS G12D) | SMILES |
| --- | --- | --- | --- | --- | --- | --- |
| C (≤30% compound remaining at timepoint) | C (≤30% compound remaining at timepoint) | C (≤30% compound remaining at timepoint) | A (≥70% compound remaining at timepoint) | A (≥70% compound remaining at timepoint) | A (≥70% compound remaining at timepoint) | C=CC(=O)N1CCN(c2cc(C(=O)Nc3cc(O)cc4ccccc34)nc(OCC3CCCN(C)C3)n2)C[C@@H]1CC#N (stereo partly drawn) [Example 50, 6-[(3S)-3-(cyanomethyl)-4-prop-2-enoyl-piperazin-1-yl]-N-(3-hydroxy-1-naphthyl)-2-[(1-methyl-3-piperidyl)methoxy]pyrimidine-4-carboxamide] |
| C (≤30% compound remaining at timepoint) | C (≤30% compound remaining at timepoint) | C (≤30% compound remaining at timepoint) | A (≥70% compound remaining at timepoint) | A (≥70% compound remaining at timepoint) | A (≥70% compound remaining at timepoint) | C=CC(=O)N1CCN(c2cc(C(=O)Nc3cc(O)cc4ccccc34)nc(OC[C@@H]3CCCN3CC)n2)C[C@@H]1CC#N [Example 51, 6-[(3S)-3-(cyanomethyl)-4-prop-2-enoyl-piperazin-1-yl]-2-[[(2S)-1-ethylpyrrolidin-2-yl]methoxy]-N-(3-hydroxy-1-naphthyl)pyrimidine-4-carboxamide] |
| C (≤30% compound remaining at timepoint) | C (≤30% compound remaining at timepoint) | C (≤30% compound remaining at timepoint) | A (≥70% compound remaining at timepoint) | A (≥70% compound remaining at timepoint) | A (≥70% compound remaining at timepoint) | C=CC(=O)N1CCN(c2cc(C(=O)Nc3cc(O)cc4ccccc34)nc(OC[C@@H]3CCCN3CCO)n2)C[C@@H]1CC#N [Example 53, 6-[(3S)-3-(cyanomethyl)-4-prop-2-enoyl-piperazin-1-yl]-2-[[(2S)-1-(2-hydroxyethyl)pyrrolidin-2-yl]methoxy]-N-(3-hydroxy-1-naphthyl)pyrimidine-4-carboxamide] |
| C (≤30% compound remaining at timepoint) | C (≤30% compound remaining at timepoint) | C (≤30% compound remaining at timepoint) | A (≥70% compound remaining at timepoint) | A (≥70% compound remaining at timepoint) | A (≥70% compound remaining at timepoint) | C=CC(=O)N1CCN(c2cc(C(=O)Nc3cc(O)cc4ccccc34)nc(OC[C@@H]3CCCN3C(C)C)n2)C[C@@H]1CC#N [Example 54, 6-[(3S)-3-(cyanomethyl)-4-prop-2-enoyl-piperazin-1-yl]-N-(3-hydroxy-1-naphthyl)-2-[[(2S)-1-isopropylpyrrolidin-2-yl]methoxy]pyrimidine-4-carboxamide] |
